Values after ≈ are worked out from the molar mass of the structure shown.
Experiments:
[1] = target: Muscarinic acetylcholine receptor M1 (Homo sapiens, UniProt P11229); assay: Positive allosteric modulation of human M1 receptor
[2] = Fraction unbound in rat brain; format: ADME, tissue-based
[3] = Brain to plasma permeability coefficient, Kp in Sprague-Dawley rat at 0.1 to 0.2 mg/kg, iv measured after 0.25 hrs; format: ADME, organism-based; settings: dose 0.1-0.2 mg/kg
P-gp = assay: Substrate activity at human P-gp expressed in MDCK-MDR1 cells assessed as efflux ratio; format: ADME, cell-based
[4] = Solubility of the compound pH 7.5; format: physicochemical; settings: buffer
Canis lupus familiaris = species on record: Canis lupus familiaris; assay: Positive allosteric modulation of dog M4 receptor relative to acetylcholine
[5] = target: Muscarinic acetylcholine receptor M1 (Rattus norvegicus, UniProt P08482); assay: Positive allosteric modulation of rat M1 receptor
Cytochrome P450 3A4 = Cytochrome P450 3A4 (Homo sapiens, UniProt P08684); assay: Inhibition of CYP3A4 (unknown origin); format: ADME
Cytochrome P450 1A2 = Cytochrome P450 1A2 (Homo sapiens, UniProt P05177); assay: Inhibition of CYP1A2 (unknown origin); format: ADME
[6] = Plasma clearance in rat; format: ADME; settings: read-out: CL(app)
[7] = Volume of distribution at steady state in rat; format: ADME; settings: in vivo, read-out: Vdss
[8] = Oral bioavailability in rat at 3 mg/kg administered as suspension; format: ADME, organism-based; settings: in vivo
[9] = Plasma clearance in cynomolgus monkey; format: ADME, Macaca fascicularis; settings: read-out: CL(app)
[10] = Half life in cynomolgus monkey; format: ADME, Macaca fascicularis; settings: in vivo
[11] = target: D(3) dopamine receptor (Homo sapiens) (UniProt P35462); assay: Displacement of [3H]spiperone from full length human dopamine D3 receptor expressed in CHO cells assessed as residual binding level for radioligand at 10 uM incubated for 60 mins by radiometric scintillation analysis relative to control; format: cell-based
[12] = target: D(2) dopamine receptor (Homo sapiens) (UniProt P14416); assay: Displacement of [3H]Spiperone from full length human dopamine D2S receptor expressed in CHO cells assessed as residual binding level for radioligand at 10 uM after 120 mins by radiometric scintillation analysis relative to control; format: cell-based
[13] = target: Voltage-dependent N-type calcium channel subunit alpha-1B (Rattus norvegicus) (UniProt Q02294); assay: Displacement of [125I]-w-conotoxin GIVA from N-type calcium channel Cav2.2 in Wistar rat brain membrane assessed as residual binding level for radioligand at 10 uM incubated for 30 mins by radiometric scintillation analysis relative to control; format: cell membranes
[14] = target: L-type calcium channel Cav1.2, dihydropyridine binding site (Rattus norvegicus, UniProt P22002); assay: Displacement of [3H]-Nitrendipine from L-type calcium channel Cav1.2 dihydropyridine binding site in Wistar rat brain assessed as residual binding level for radioligand at 10 uM incubated for 90 mins by radiometric scintillation analysis relative to control; format: tissue-based; settings: probe [3H]-Nitrendipine, read-out: Activity
[15] = target: B2 bradykinin receptor (Homo sapiens) (UniProt P30411); assay: Displacement of [3H]bradykinin from recombinant full length human B2 receptor expressed in Chem-1 cells assessed as residual binding level for radioligand at 10 uM after 60 mins by radiometric scintillation analysis relative to control; format: cell-based
[16] = target: Alpha-1D adrenergic receptor (Homo sapiens) (UniProt P25100); assay: Displacement of [3H]-Prazosin from recombinant full length human adrenergic alpha 1D receptor assessed as residual binding level for radioligand at 10 uM incubated for 60 mins by radiometric scintillation analysis relative to control
[17] = target: Sodium-dependent dopamine transporter (Homo sapiens) (UniProt Q01959); assay: Displacement of [125I]RTI-55 from full length recombinant human dopamine transporter expressed in CHO-S cells assessed as residual binding level for radioligand at 10 uM after 180 mins by radiometric scintillation analysis relative to control; format: cell-based
[18] = target: Cysteinyl leukotriene receptor 1 (Homo sapiens) (UniProt Q9Y271); assay: Displacement of [3H]LTD4 from full length recombinant human CysLT1 Leukotriene receptor expressed in CHO-K1 cells assessed as residual binding level for radioligand at 10 uM incubated for 30 mins radiometric scintillation analysis relative to control; format: cell-based
[19] = target: Adenosine receptor A2a (Homo sapiens) (UniProt P29274); assay: Displacement of [3H]CGS-21680 from full length recombinant human A2A receptor expressed in HEK293 cells assessed as residual binding level for radioligand at 10 uM measured after 90 mins radiometric scintillation analysis relative to control; format: cell-based
Rattus norvegicus [20] = species on record: Rattus norvegicus; assay: Displacement of [3H]-Flunitrazepam from Wistar rat brain GABA(A)/BzR site assessed as residual binding level for radioligand at 10 uM measured after 60 mins by scintillation counting method relative to control; format: tissue-based
[21] = target: Glutamate NMDA receptor (Rattus norvegicus) (UniProt P35439+Q00959+Q00960+Q00961+Q62645+Q8VHN2+Q9R1M7); assay: Displacement of [3H]-CGP39653 from NMDA glutamate receptor in Wistar rat brain assessed as residual binding level for radioligand at 10 uM incubated for 20 mins by scintillation counting analysis relative to control; format: tissue-based
[22] = target: Histamine H1 receptor (Homo sapiens) (UniProt P35367); assay: Displacement of [3H]pyrilamine from full length recombinant human histamine H1 receptor expressed in CHO-K1 cells assessed as residual binding level for radioligand at 10 uM after 180 mins by scintillation counting analysis relative to control; format: cell-based
[23] = target: Melatonin receptor type 1A (Homo sapiens) (UniProt P48039); assay: Displacement of 2-[1251]-iodomelatonin from human MT1 receptor expressed in CHO-K1 cells assessed as residual binding level for radioligand at 10 uM incubated for180 mins by scintillation counting analysis relative to control; format: cell-based; settings: time 180.0 min
[24] = target: Neuronal acetylcholine receptor; alpha3/beta4 (Homo sapiens) (UniProt P30926+P32297); assay: Displacement of [125I] epibatidine from human nicotinic acetylcholine receptor alpha3/beta4 assessed as residual binding level for radioligand at 10 uM incubated for 60 mins by scintillation counting analysis relative to control; format: protein-complex assay
Rattus norvegicus [25] = species on record: Rattus norvegicus; assay: Displacement of [3H]-Rolipram from phosphodiesterases PDE4 receptor rolipram binding site in Wistar rat brain assessed as residual binding level for radioligand at 10 uM incubated for 60 mins; format: tissue-based
[26] = target: Sodium-dependent serotonin transporter (Homo sapiens) (UniProt P31645); assay: Displacement of [3H]paroxetine from full length recombinant human SET expressed in HEK293 cells assessed as residual binding level for radioligand at 10 uM after 60 mins by radiometric scintillation analysis relative to control; format: cell-based
[27] = target: P2X receptor (Rattus norvegicus) (UniProt P51579+P49653+P51578+Q64663+P47824+P51577+P49654); assay: Displacement of [3H] alpha, beta-Methylene-ATP from P2X receptor in Wistar rat urinary bladder assessed as residual binding level for radioligand at 10 uM incubated for 120 mins by liquid scintillation counting method relative to control; format: tissue-based
[28] = target: Gamma-aminobutyric acid type B receptor subunit 1 (Homo sapiens) (UniProt Q9UBS5); assay: Displacement of [3H]CGP-54626 from human recombinant full length GABAB1 receptor expressed in CHO-K1 cells assessed as residual binding level for radioligand at 10 uM incubated for 180 mins by scintillation counting analysis relative to control; format: cell-based

Chain of D(2) dopamine receptor (Homo sapiens) (P14416 whole entry): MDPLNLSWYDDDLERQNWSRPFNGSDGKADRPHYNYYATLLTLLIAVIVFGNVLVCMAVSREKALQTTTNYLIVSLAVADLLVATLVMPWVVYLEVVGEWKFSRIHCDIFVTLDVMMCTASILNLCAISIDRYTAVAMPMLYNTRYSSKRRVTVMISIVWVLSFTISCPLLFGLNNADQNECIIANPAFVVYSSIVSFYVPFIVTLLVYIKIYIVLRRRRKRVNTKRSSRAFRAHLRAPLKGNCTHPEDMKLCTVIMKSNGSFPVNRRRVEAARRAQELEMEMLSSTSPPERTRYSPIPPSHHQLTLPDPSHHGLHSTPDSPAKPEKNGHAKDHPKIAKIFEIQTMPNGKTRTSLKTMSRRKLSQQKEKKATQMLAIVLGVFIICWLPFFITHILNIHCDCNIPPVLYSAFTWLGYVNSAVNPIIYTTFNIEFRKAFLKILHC
Chain of Cytochrome P450 1A2 (P05177 whole entry): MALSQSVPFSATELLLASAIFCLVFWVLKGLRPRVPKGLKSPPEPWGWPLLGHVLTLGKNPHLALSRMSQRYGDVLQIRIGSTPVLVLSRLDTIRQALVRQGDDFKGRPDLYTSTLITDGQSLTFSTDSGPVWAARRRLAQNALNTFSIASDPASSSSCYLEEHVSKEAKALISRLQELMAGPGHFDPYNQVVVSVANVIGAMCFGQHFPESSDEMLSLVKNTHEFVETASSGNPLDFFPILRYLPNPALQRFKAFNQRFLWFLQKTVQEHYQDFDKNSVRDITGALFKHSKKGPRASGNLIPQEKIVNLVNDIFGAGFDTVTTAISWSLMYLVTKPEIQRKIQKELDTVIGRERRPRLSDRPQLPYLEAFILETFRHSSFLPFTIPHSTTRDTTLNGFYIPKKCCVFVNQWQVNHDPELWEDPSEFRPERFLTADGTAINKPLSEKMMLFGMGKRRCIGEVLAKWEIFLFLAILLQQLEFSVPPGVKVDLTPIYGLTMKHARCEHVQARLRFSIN
Chain of Alpha-1D adrenergic receptor (Homo sapiens) (P25100 whole entry): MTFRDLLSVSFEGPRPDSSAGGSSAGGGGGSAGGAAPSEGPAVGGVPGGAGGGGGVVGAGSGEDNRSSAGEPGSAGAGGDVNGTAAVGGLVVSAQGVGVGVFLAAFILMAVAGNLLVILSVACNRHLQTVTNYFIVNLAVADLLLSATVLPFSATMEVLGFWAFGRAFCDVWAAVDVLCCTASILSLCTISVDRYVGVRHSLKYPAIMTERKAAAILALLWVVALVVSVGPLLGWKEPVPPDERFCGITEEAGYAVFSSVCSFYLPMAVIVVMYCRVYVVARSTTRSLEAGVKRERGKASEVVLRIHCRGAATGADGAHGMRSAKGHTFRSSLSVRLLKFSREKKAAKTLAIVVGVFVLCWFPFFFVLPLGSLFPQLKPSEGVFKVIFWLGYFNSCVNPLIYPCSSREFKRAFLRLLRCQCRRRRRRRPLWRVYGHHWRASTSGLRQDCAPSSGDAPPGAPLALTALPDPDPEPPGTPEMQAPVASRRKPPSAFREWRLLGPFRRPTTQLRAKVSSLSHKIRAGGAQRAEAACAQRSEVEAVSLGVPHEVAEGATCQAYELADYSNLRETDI
Chain of Voltage-dependent N-type calcium channel subunit alpha-1B (Rattus norvegicus) (Q02294 whole entry, looked up): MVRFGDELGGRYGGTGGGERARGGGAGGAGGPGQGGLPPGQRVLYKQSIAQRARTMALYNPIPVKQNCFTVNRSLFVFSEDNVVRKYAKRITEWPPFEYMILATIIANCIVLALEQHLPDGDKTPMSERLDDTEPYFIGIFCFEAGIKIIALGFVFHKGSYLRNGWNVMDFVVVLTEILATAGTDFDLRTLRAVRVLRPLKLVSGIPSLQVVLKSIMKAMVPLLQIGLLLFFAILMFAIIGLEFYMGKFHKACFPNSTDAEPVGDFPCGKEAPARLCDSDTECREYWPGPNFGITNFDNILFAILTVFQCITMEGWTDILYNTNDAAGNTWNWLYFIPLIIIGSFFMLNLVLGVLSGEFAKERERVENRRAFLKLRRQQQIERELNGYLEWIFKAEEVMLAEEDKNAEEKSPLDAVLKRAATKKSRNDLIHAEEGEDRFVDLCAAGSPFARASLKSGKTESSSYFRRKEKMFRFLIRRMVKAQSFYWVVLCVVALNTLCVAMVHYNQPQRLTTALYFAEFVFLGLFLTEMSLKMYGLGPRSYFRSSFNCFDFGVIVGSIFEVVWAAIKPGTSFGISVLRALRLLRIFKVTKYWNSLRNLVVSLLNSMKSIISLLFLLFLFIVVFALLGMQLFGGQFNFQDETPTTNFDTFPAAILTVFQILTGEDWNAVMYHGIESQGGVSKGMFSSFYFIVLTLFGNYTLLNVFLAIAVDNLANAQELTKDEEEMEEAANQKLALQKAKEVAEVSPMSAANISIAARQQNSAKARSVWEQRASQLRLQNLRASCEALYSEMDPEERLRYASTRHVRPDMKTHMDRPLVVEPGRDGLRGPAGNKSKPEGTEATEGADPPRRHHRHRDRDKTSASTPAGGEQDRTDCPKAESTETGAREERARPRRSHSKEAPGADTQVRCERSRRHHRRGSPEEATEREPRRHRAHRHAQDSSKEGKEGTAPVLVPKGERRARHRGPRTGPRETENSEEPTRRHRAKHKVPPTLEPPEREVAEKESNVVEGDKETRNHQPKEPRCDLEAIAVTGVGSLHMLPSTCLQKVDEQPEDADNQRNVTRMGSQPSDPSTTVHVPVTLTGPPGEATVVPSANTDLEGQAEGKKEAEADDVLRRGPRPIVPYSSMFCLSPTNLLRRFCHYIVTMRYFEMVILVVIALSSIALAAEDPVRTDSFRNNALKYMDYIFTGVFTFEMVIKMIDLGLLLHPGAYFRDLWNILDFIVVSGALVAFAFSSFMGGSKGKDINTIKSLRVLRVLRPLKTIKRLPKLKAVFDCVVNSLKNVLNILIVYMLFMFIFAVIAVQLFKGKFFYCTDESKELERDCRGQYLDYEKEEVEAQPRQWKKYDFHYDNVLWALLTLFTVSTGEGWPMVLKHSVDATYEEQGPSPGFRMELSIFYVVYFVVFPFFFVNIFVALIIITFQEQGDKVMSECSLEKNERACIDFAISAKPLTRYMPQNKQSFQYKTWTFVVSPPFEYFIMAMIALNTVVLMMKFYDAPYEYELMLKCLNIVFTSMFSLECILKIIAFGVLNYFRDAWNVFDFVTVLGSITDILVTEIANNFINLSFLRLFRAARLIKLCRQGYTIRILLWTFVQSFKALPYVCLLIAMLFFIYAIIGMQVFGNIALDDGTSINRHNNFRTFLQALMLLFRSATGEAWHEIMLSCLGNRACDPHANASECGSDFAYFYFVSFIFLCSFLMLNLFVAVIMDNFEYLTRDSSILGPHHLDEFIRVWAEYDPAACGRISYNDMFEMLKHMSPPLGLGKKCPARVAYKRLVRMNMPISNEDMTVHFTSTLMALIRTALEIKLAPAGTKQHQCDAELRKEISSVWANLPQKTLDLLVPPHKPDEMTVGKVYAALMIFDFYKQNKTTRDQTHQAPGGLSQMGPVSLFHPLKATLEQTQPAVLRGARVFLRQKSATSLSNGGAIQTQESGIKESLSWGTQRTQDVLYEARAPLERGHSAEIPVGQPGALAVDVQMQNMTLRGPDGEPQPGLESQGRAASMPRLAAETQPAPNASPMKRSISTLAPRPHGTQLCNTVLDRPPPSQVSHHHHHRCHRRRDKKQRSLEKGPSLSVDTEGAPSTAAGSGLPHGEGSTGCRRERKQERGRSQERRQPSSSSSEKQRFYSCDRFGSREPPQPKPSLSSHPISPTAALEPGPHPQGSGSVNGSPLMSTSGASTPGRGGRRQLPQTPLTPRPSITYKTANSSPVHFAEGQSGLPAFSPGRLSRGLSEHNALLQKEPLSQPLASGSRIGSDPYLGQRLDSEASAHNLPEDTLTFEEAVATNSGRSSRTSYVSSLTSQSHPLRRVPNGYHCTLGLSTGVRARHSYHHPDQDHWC
Chain of Cysteinyl leukotriene receptor 1 (Homo sapiens) (Q9Y271 whole entry): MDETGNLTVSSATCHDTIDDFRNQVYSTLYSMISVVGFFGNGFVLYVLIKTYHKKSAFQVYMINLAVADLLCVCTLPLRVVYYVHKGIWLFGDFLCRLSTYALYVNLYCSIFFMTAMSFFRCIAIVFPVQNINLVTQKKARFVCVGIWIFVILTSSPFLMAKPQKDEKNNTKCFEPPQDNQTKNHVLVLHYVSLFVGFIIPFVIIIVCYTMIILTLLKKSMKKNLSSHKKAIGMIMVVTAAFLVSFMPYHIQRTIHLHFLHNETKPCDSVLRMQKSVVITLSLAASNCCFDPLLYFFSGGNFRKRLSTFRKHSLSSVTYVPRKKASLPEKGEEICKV
Chain of Sodium-dependent dopamine transporter (Homo sapiens) (Q01959 whole entry): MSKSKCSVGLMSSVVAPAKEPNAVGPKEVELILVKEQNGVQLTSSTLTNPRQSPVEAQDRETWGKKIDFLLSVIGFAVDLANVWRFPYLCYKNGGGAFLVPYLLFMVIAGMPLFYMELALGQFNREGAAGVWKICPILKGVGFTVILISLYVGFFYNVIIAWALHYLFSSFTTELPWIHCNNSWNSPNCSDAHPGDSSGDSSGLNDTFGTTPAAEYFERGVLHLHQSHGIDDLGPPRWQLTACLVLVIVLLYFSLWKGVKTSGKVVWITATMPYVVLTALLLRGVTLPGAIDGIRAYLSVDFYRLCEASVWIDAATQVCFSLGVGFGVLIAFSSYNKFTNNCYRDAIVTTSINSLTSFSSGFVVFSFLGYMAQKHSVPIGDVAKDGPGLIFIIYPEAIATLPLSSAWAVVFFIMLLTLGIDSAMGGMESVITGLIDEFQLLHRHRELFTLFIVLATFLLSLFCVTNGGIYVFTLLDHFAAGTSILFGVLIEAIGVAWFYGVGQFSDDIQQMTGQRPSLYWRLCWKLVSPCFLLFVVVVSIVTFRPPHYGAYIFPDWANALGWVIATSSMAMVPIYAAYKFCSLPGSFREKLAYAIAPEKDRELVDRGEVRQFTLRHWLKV

Compound: COc1nnc2sc(C(=O)NC3CN(c4ncc(C(F)(F)F)cn4)C3)c(N)c2c1C
- EC50 [1]: > 30 µM
- fraction unbound [2]: 0.039
- Kp at 0.25 h [3]: 0.34
- efflux ratio (P-gp): 1.6
- solubility [4]: 2.9 µM (≈ 1.27 µg/mL)
- %max (Canis lupus familiaris): 37%
- EC50 [5]: > 30 µM
- IC50 (Cytochrome P450 3A4): > 30 µM
- IC50 (Cytochrome P450 1A2): > 30 µM
- clearance [6]: 7.7 mL/min/kg
- Vd [7]: 1.81 L/kg
- bioavailability [8]: 57%
- clearance [9]: 16 mL/min/kg
- half-life [10]: 78 min
- Activity [11]: > 50%
- Activity [12]: > 50%
- Activity [13]: > 50%
- activity at 1.5 h, 10 µM [14]: > 50%
- Activity [15]: > 50%
- Activity [16]: > 50%
- Activity [17]: > 50%
- Activity [18]: > 50%
- Activity [19]: > 50%
- Activity (Rattus norvegicus [20]): > 50%
- Activity [21]: > 50%
- Activity [22]: > 50%
- Activity [23]: > 50%
- Activity [24]: > 50%
- Activity (Rattus norvegicus [25]): > 50%
- Activity [26]: > 50%
- Activity [27]: > 50%
- Activity [28]: > 50%

— ChEMBL document CHEMBL4665653, “VU6005806/AZN-00016130, an advanced M positive allosteric modulator (PAM) profiled as a potential preclinical development candidate” (Bioorg Med Chem Lett, 2019)
